Test results reported in patent US8629175B2, “Functional food additives” (priority 2009, dated 2014).

How the values were obtained:
[1] = antioxidant (antiradical) activity using DPPH radical
Protocol: The antioxidant (AO) activity of DAG-DHLA was determined using DPPH. radical following the published methods (Brand-Williams, W. et al. (1995). Lebensm. Wiss. U.-Technol. 28:25-30).
Antioxidant solution in toluene (0.1 mL) was added to 3.9 mL of a 6×10^−5 mol/L toluene DPPH. solution. Absorbance was determined at 515 nm at 0 min, and every 30 min until the reaction reached a plateau. For each DAG-DHLA concentration tested, the reaction kinetics was plotted. From this graph, the percentage of DPPH. remaining at the steady state was recorded and the values transferred onto another graph showing the percentage of residual DPPH. at the steady state as a function of the molar ratio of antioxidant to DPPH..

[2] = acute food intake experiment in rats; type: in vivo
Protocol: An acute experiment with rats has been conducted recently after complying with Swedish Ethical regulations. Seven groups of rats (n=4-5) were given an acute test dose (100-200 mg/kg) of the control vehicle (rapeseed oil) and test conjugates. Part of the results is shown here in FIG. 4.

SMILES	EC50 (Efficient concentration), amount of antioxidant necessary to decrease the initial DPPH. concentration by 50% ([1]; 6×10^−5 mol/L DPPH. in toluene, steady state, 515 nm)	Number of reduced DPPH. (1/EC100), DPPH. moles reduced by one mole of antioxidant ([1]; DPPH. in toluene)	Kinetic behaviour ([1]; reaction with DPPH. in toluene, absorbance at 515 nm)	acute food intake ([2]; acute test dose 200 mg/kg, after 4 hours, compared to vehicle (rapeseed oil), FIG. 4)	antioxidant activity (in words) ([1]; DPPH. in toluene, in parallel, compared with DAG-DHLA)	acute food intake ([2]; acute test dose (100-200 mg/kg), compared with the DAG-DHLA result)
CCCCCCCC/C=C\CCCCCCCC(=O)OCC(COC(=O)CCCCCCC/C=C\CCCCCCCC)OC(=O)CCCCC(S)CCS (stereo not drawn) [compound 2, 1,3-Dioleoyl-2-dihydrolipoate-sn-glycerol]	0.21 (mol/L) AO/(mol/L) DPPH.	2.34	Rapid	seems to block food intake	–	–
CCCCCCCC/C=C\CCCCCCCC(=O)OCC(COC(=O)CCCCCCC/C=C\CCCCCCCC)OC(=O)CCCCC1CCSS1 (stereo not drawn) [compound 1, 1,3-Dioleoyl-2-lipoyl-sn-glycerol]	–	–	–	–	negligible antioxidant activity	Rather similar result
